What was measured:
Mus musculus [1] = assay: (§1) AUC in mouse at 30 mg/kg, po; type: ADME, organism-based, Plasma; set-up: dose 30 mg/kg, route oral; settings: in vivo
[2] = Cmax in mouse at 30 mg/kg, po; type: ADME, organism-based; set-up: dose 30 mg/kg, route oral; settings: in vivo
[3] = Half life in mouse at 30 mg/kg, po; type: ADME, organism-based; set-up: dose 30 mg/kg, route oral; settings: in vivo
[4] = Volume of distribution in mouse at 3 mg/kg, iv; type: ADME, organism-based; set-up: dose 3 mg/kg, route intravenous; settings: in vivo
Mus musculus [5] = assay: (§2) Oral bioavailability in mouse at 30 mg/kg; type: ADME, organism-based; settings: in vivo
[6] = as §1; type: ADME, organism-based, Plasma; set-up: dose 30 mg/kg, route oral; settings: plasma
[7] = Clearance in mouse at 3 mg/kg, iv; type: ADME, organism-based; set-up: dose 3 mg/kg, route intravenous; settings: in vivo
[8] = as §2; type: ADME, organism-based; settings: in vivo

| SMILES | AUC (Mus musculus [1]) [ng·h/mL] | Cmax [2] [ng/mL] | half-life [3] [h] | Vd [4] [L/kg] | F (Mus musculus [5]) [%] | AUC [6] [ng·h/mL] | clearance [7] [mL/min/kg] | bioavailability [8] [%] |
| --- | --- | --- | --- | --- | --- | --- | --- | --- |
| Oc1ccc2cc(CNCCc3ccc(Br)cc3)c(-c3ccsc3)nc2c1 | 400 | 370 | 4.4 | 2.4 | 9 | – | – | – |
| COc1cc2nc(-c3ccsc3)c(CNCCc3ccc(Br)cc3)cc2cc1O | – | 500 | 7.7 | 1.4 | – | 860 | 29 | 10 |

— ChEMBL document CHEMBL1255552, “Synthesis and SAR of 2-aryl-3-aminomethylquinolines as agonists of the bile acid receptor TGR5” (Bioorg Med Chem Lett, 2010)
